According to patent US20160067211A1, “PHARMACEUTICAL COMPOSITION” (Eberhard Karls Universitaet Tuebingen Medizinische Fakultaet, priority 2013, published 2016):

Legend:
Format in all cases: cell-based, human
[1] = system: LC3 in BLM melanoma cells; experiment: Western blot LC3 (autophagy), BLM; conditions: 100 μM, after 12-24 hours
Description: (§1) (A) Cell cycle FACS analyses of PI stained BLM and SK-MEL-28 melanoma cells. 100 μM of 8-PN-induced a G2 arrest in both cells. (B) FACS analyses of BLM and SK-MEL-28 melanoma cells treated with 100 μM 6-PN or 8-PN and stained for annexin V/PI; staurosporin was used as control for apoptosis induction and DMSO as vehicle control. […] (C) BLM and SK-MEL-28 melanoma cells were treated with 100 μM of PNs; TSA, SAHA and EMSO were used as controls.
(§2) The following antibodies were used: Anti-Vinculin and Anti-Actin (1:5000, Sigma-Aldrich), Anti-Acetyl-Histon H3 (1:5000, Millipore, Billerica, USA), Anti-Caspase-3 (1:1000), Anti-AKT, Anti-pAKT, Anti-ERK, Anti-pERK, […], Anti-p70S6 Kinase, and Anti-pS6 protein (1:1000), all from Cell Signaling, Frankfurt, Germany), Anti-LC3 (1:5000, Sigma-Aldrich).
Since it has been speculated that the formation of intracytoplasmic vacuoles in pancreatic or breast cancer cells by 6-PN and 8-PN observed in pervious studies might represent an induction of autophagy, this issue was further investigated on a molecular level. BLM and SK-MEL-28 melanoma cells were treated with 100 μM of 6-PN, 8-PN, SAHA or TSA (and with DMSO as control), and the treated cells were lysed for protein extraction after 1 hour, 2 hours, 4 hours, 12 hours and 24 hours. […]

SK-MEL-28 melanoma cells = experiment: Apoptosis antibody array (35 proteins); conditions: SK-MEL-28, 100 μM, 4 hours
Description: Apoptosis assay (35 proteins) performed on lysates of SK-MEL-28 melanoma cells 4 hours after treatment with 100 μM of 6-PN or 8-PN. Protein expression levels were estimated performing a densitometric analysis. Neither 6-PN nor 8-PN yielded a significant change of expression of the analyzed proteins involved in apoptosis.
Testing of apoptosis induction was performed with the human Proteom-Profiler-Apoptosis-Antibody-Array-Kit (R & D Systems, Wiesbaden, Germany) as described by the manufacturer after treatment of SK-MEL-28 melanoma cells with 100 μM 6-PN or 100 μM 8-PN for 4 hours.
(§3) To further analyze the possibility of apoptosis induction, an extensive apoptosis assay was performed on SK-MEL-28 melanoma cells 4 hours after treatment with 100 μM 6-PN or 8-PN (FIG. 9). […] This was verified by FACS cell cycle analyses to screen for a possible increase of the sub-G1 fraction of cells (apoptotic cells) or for the induction of a G2 arrest (inhibition of proliferation). […] To further differentiate between the induction of apoptosis and/or necrosis an PI/Annexin V staining of SK-MEL-28 and BLM cells was performed 4 hours and 24 hours after the treatment with 6-PN or 8-PN; 10 μM staurosporin (6 hours treatment) was used as positive control for the induction of apoptosis; DMSO treatment was used as vehicle control. The cells were then analyzed by FACS.

BLM melanoma cells = experiment: PI/Annexin V staining FACS, BLM; conditions: 100 μM; for annexin V positive (apoptotic) cells: DMSO control 4.1%; for PI positive (nectrotic) cells: DMSO control 9.1%
Description: as §1, §3

[2] = system: cleaved caspase-3 in SK-MEL-28 melanoma cells; experiment: Western blot for cleaved caspase-3; conditions: SK-MEL-28, 100 μM
Description: Western blot analysis of SK-MEL-28 melanoma cells treated with 100 μM of 6-PN, 8-PN, SAHA or TSA. EtOH and DMSO were applied as controls.
as §2
To further analyze the type of cell death induced by 6-PN and 8-PN, western blot analyses of SK-MEL-28 melanoma cells were performed 1, 2, 4, 12 and 24 hours after the treatment with 100 μM 6-PN and 8-PN. […] Upon PN treatment an inconsistent expression of oncogenic AKT and phospho-AKT (pAKT) was detected. […] Thus, there was an obvious discrepancy between the expression of pAKT and pS6P. Therefore it was first also looked for the expression of P70S6 kinase and its phosphorylated form. […] Therefore it was next asked whether the S6P could be phosphorylated by a different mechanism. In this respect, activated ERK can phosphorylate the p90 ribosomal S6 kinase (pP90). pP90 also phosphorylates the S6P (in addition to the P70S6 kinase). Since the pP70S6 kinase was absent in the used cells (SK-MEL-28 and BLM), it was hypothesized that the phosphorylation of the S6P was conducted via the pERK/pP90 pathway, independent from the P70S6 signalling. This hypothesis was supported by the parallel down-regulation of the bands for pP90 (Thr359/Ser363) and pS6P 12 hours after the treatment with 6-PN, and the reappearance of both bands after 24 hours (FIG. 8). […] The western blot experiments were repeated with BLM cells under the same treatment conditions and yielded similar results (not shown).

[3] = system: histon protein H3 acetylation in SK-MEL-28 melanoma cells; experiment: Western blot of acetylated histon H3, SK-MEL-28; conditions: SK-MEL-28, 100 μM, two hours, vs. DMSO control
Description: FIG. 4: 6-PN and 8-PN induce a hyper acetylation in SK-MEL-28 melanoma cells. Western blot analysis of acetylated histon complex H3 in cellular lysates of BLM and SK-MEL-28 cells treated with 100 μM 6-PN or 8-PN for 1, 2, 4, 12 and 24 h, or with 100 μM SAHA (as reference HDACi) for 24 h. Equal protein loading was verified by vinculin staining (lower rows). At 24 hours (BLM) and 2 hours (SK-MEL-28) after the PN treatment a prominent up-regulation of ac-H3 is detectable. The protein expression levels were estimated performing a densitometric analysis.
as §2
An incubation of cells with HDACi induces generally a hyperacetylation of histon proteins. Therefore, the acetylation status of the histon protein H3 after treatment with 6-PN or 8-PN was investigated. Corresponding to the HDAC screening results, a direct effect was monitored. […] SAHA was used as control HDACi (at 100 μM, 24 hours treatment).

Question: `CC(C)=CCc1c(O)cc(O)c2c1OC(c1ccc(O)cc1)CC2=O` (centres unmarked) [8-PN, 5,7-Dihydroxy-2-(4-hydroxy-phenyl)-8-(3-methyl-but-2-enyl)-chroman-4-one] was tested. Which “shift from LC3-I to LC3-II (autophagy)” value [1] did it give?
Answer: Its value is “clearly induced the shift”.

Question: And the “apoptosis induction (expression of 35 apoptosis proteins, densitometric)” value (SK-MEL-28 melanoma cells)?
Answer: The value was “not apoptosis related”.

Question: And the “annexin V positive (apoptotic) cells” value (BLM melanoma cells; 4 hours)?
Answer: The value was 1.2%.

Question: What about the “PI positive (nectrotic) cells” value (BLM melanoma cells; 4 hours) of the same compound?
Answer: The value was 27%.

Question: What about the “annexin V positive (apoptotic) cells” value (BLM melanoma cells; 24 hours) of the same compound?
Answer: Its value is 5.9%.

Question: What about the “PI positive (nectrotic) cells” value (BLM melanoma cells; 24 hours) of the same compound?
Answer: Its value is 22.4%.

Question: What about the “band for cleaved caspase-3” value [2] of the same compound?
Answer: The value was “no additional band”.

Question: And the “histon complex H3 acetylation” value [3]?
Answer: The value was “massive increase”.
